Target: T1, W741C type mutant AR (Homo sapiens, UniProt P10275, DUP77-80/W742C)
T1 construct: expressed in transfected cells; host or cells: Cos-7
Assay: Antagonist screening: inhibition of DHT-induced W741C mutant AR transcription activity (luciferase co-transfection)
Type: cell-based
Conditions: 40 nM DHT + 10 μM Compound A
Source text: FIG. 4 is a drawing showing the antagonistic action of Compound A on a W741C type mutant AR. […] Mean±standard error, n=16 for the only-DHT addition group and n=4 for the DHT+Compound A addition group.

T1 sequence (P10275 with tags, fused parts or gaps DUP77-80/W742C): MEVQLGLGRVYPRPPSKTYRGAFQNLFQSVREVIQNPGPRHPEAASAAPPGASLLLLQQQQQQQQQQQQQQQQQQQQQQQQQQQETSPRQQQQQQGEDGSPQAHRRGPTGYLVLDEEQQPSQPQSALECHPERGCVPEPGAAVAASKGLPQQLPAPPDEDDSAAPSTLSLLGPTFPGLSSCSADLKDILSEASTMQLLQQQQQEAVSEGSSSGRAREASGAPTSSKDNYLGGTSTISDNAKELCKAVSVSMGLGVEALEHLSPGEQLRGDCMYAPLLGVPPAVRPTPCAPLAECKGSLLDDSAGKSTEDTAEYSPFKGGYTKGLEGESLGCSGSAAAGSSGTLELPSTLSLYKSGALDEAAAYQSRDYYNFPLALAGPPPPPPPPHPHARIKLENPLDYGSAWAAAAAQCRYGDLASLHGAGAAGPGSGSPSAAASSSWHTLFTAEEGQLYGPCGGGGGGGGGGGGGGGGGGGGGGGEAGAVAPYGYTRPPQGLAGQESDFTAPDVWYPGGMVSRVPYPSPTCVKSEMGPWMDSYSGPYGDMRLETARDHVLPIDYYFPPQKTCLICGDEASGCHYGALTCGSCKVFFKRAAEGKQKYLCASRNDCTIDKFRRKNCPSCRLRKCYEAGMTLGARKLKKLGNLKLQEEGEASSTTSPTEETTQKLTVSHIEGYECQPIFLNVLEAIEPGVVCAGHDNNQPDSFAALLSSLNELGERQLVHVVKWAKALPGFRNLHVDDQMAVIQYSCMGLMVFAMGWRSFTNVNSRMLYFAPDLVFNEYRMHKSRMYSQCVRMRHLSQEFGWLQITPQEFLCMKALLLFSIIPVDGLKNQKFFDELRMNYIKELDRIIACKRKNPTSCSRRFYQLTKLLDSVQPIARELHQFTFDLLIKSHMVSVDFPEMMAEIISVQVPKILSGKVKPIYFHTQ

For `CCOC(=O)c1c(C)[nH]c(C)c1-c1ccc([N+](=O)[O-])cc1` [Compound A, ethyl 2,5-dimethyl-4-(4-nitrophenyl)-1H-pyrrole-3-carboxylate], the “action on W741C type mutant AR transcription activity of DHT” value was “antagonist action”.
